Data as given in patent US8664226B2, “Compound having 3-heteroarylpyrimidin-4-(3H)-one structure and pharmaceutical preparation containing same” (Kowa Company, Ltd., priority 2009, dated 2014).

Target: T1, angiotensin II type 1 receptor (Oryctolagus cuniculus, UniProt P34976)
T1 construct: By using a specimen of isolated rabbit blood vessels; from tissue; host or cells: rabbit thoracic aorta ring (New Zealand White, male)
T1 sequence (P34976 1-359): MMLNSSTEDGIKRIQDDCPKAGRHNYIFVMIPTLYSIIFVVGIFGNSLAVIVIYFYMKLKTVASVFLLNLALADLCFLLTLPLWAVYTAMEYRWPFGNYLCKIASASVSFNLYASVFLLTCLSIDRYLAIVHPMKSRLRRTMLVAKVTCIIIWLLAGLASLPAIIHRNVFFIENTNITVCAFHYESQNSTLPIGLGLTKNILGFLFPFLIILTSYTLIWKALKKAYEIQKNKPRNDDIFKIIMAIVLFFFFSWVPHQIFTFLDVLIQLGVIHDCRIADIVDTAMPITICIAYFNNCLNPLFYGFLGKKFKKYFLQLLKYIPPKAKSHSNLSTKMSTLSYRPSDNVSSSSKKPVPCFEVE
Test: Angiotensin II antagonistic activity in isolated rabbit blood vessels
Details: angiotensin II (10 nM)-induced contraction of rabbit thoracic aorta ring
Procedure: By using a specimen of isolated rabbit blood vessels, antagonistic activity of the compounds of the invention against angiotensin II type 1 receptor was estimated from a dose-response curve of angiotensin II-induced blood vessel contraction.
During the measurement, the inside temperature of the magnus bath was maintained at 37° C. and the bath was continuously ventilated with a sufficient amount of mixed gas (95% O2 and 5% CO2). The angiotensin II-induced contraction was converted into a relative value (%) that is based on the angiotensin II (10 nM)-induced contraction in the absence of the compounds of each example. From the concentration-response curve obtained therefrom, 50% inhibition concentration (IC50 value) was calculated by using SAS Preclinical Package Ver5.0 (trade name, manufactured by SAS institute Japan Co., Tokyo, Japan), which is a statistical analysis program.

| IC50 [µM] | Compound |
| --- | --- |
| 0.001 | CCCCc1nc(C)n(-c2ncc(OCC(N)=O)cn2)c(=O)c1Cc1ccc(-c2ccccc2-c2nnn[nH]2)cc1 [Example 39, 2-{2-{5-{[2′-(1H-tetrazol-5-yl)biphenyl-4-yl]methyl}-4-butyl-2-methyl-6-oxopyrimidin-1(6H)-yl}pyrimidin-5-yloxy}acetamide] |
| 0.0077 | CCCCc1nc(C)n(-c2ncc(OC3CCC(=O)CC3)cn2)c(=O)c1Cc1ccc(-c2ccccc2-c2nnn[nH]2)cc1 [Example 29, 5-{[2′-(1H-tetrazol-5-yl)biphenyl-4-yl]methyl}-6-butyl-2-methyl-3-[5-(4-oxocyclohexyloxy)pyrimidin-2-yl]pyrimidin-4 (3H)-one] |
| 0.014 | CCCCc1nc(C)n(-c2ncccc2C(F)(F)F)c(=O)c1Cc1ccc(-c2ccccc2-c2nnn[nH]2)cc1 [Example 9, 5-{[2′-(1H-tetrazol-5-yl)biphenyl-4-yl]methyl}-6-butyl-2-methyl-3-[3-(trifluoromethyl)pyridin-2-yl]pyrimidin-4(3H)-one] |
| 0.025 | CCCCc1nc(C)n(-c2nnc(C)c(C)n2)c(=O)c1Cc1ccc(-c2ccccc2-c2nnn[nH]2)cc1 [Example 61, 5-{[2′-(1H-tetrazol-5-yl)biphenyl-4-yl]methyl}-6-butyl-3-(5,6-dimethyl-1,2,4-triazin-3-yl)-2-methylpyrimidin-4 (3H)-one] |
| 0.0036 | CCCCc1nc(C)n(-c2ncc(OCCCNS(C)(=O)=O)cn2)c(=O)c1Cc1ccc(-c2ccccc2-c2nnn[nH]2)cc1 [Example 57, N-{3-{2-{5-{[2′-(1H-tetrazol-5-yl)biphenyl-4-yl]methyl}-4-butyl-2-methyl-6-oxopyrimidin-1(6H)-yl}pyrimidin-5-yloxy}propyl}methane sulfonamide] |
| 0.0055 | CCCCc1nc(C)n(-c2ncc(OC(Cc3ccccc3)C(=O)O)cn2)c(=O)c1Cc1ccc(-c2ccccc2-c2nnn[nH]2)cc1 (stereo not drawn) [Example 43, 2-{2-{5-{[2′-(1H-tetrazol-5-yl)biphenyl-4-yl]methyl}-4-butyl-2-methyl-6-oxopyrimidin-1(6H)-yl}pyrimidin-5-yloxy}-3-phenylpropionic acid] |

Second part, the compound before the results:

| Compound | IC50 [µM] |
| --- | --- |
| CCCCc1nc(C)n(-c2ccccn2)c(=O)c1Cc1ccc(-c2ccccc2-c2nnn[nH]2)cc1 [Example 1, 5-{[2′-(1H-tetrazol-5-yl)biphenyl-4-yl]methyl}-6-butyl-2-methyl-3-(pyridin-2-yl)pyrimidin-4(3H)-one] | 0.0021 |
| CCCCc1nc(C)n(-c2ncc(OCCCC(=O)NC)cn2)c(=O)c1Cc1ccc(-c2ccccc2-c2nnn[nH]2)cc1 [Example 48, 4-{2-{5-{[2′-(1H-tetrazol-5-yl)biphenyl-4-yl]methyl}-4-butyl-2-methyl-6-oxopyrimidin-1(6H)-yl}pyrimidin-5-yloxy}-N-methylbutanamide] | 0.0099 |
| CCCCc1nc(C)n(-c2ccc([N+](=O)[O-])cn2)c(=O)c1Cc1ccc(-c2ccccc2-c2nnn[nH]2)cc1 [Example 14, 5-{[2′-(1H-tetrazol-5-yl)biphenyl-4-yl]methyl}-6-butyl-2-methyl-3-(5-nitropyridin-2-yl)pyrimidin-4 (3H)-one] | 0.546 |
| CCCCc1nc(C)n(-c2ncc(OCc3nc(-c4ccccc4)oc3C)cn2)c(=O)c1Cc1ccc(-c2ccccc2-c2nnn[nH]2)cc1 [Example 31] | 0.338 |
| CCCCc1nc(C)n(-c2ncn(C)n2)c(=O)c1Cc1ccc(-c2ccccc2-c2nnn[nH]2)cc1 [Example 65, 5-{[2′-(1H-tetrazol-5-yl)biphenyl-4-yl]methyl}-6-butyl-2-methyl-3-(1-methyl-1H-1,2,4-triazol-3-yl)pyrimidin-4 (3H)-one] | 0.023 |
| CCCCc1nc(C)n(-c2cccc(C(F)(F)F)n2)c(=O)c1Cc1ccc(-c2ccccc2-c2nnn[nH]2)cc1 [Example 12, 5-{[2′-(1H-tetrazol-5-yl)biphenyl-4-yl]methyl}-6-butyl-2-methyl-3-[6-(trifluoromethyl)pyridin-2-yl]pyrimidin-4(3H)-one] | 0.23 |
